A short description of the first data set: Test of compactability of different sugar alcohols (crushing strength vs compression force). Type of data set: physicochemical. Conditions: pure sugar alcohol compacts, single punch press, punch and die lubricated with magnesium stearate; FIG. 1. Here is the method:
Tablets comprising either Neosorb P100T, Sorbidex P1666BO, Isomalt ST-PF, Maltisorb P90, Mannitol 60 or Xylitol CM50 were compressed on an instrumented Fette Exacta 1/F single punch tablet press, only maximum compression force on the upper punch was recorded.
Before the compression of each tablet the punch tips and the die bore were lubricated with a 5% suspension of magnesium stearate in acetone. The acetone was allowed to evaporate before compression of the tablet.
The sugar alcohol was weighed, transferred to the die bore and then compressed, see table 1. Immediately after ejection the tablet was tested for crushing strength.
From FIG. 1 (each point is the average of three measurements) it is seen that the assumption was correct. Therefore, test of particle size was not repeated for the other sugar alcohols.
The tabletting machine used is equipped with data acquisition that as a minimum measure the compaction force applied. However, any tabletting machine may be used provided the compaction force applied can be measured.
The crushing strength has been measured by use of a Schleuniger-2E from the company Dr. Schleuniger and determined as the mean of measuring the crushing strength for 10 individual tablets.
`OC[C@@H](O)[C@@H](O[C@H]1O[C@H](CO)[C@@H](O)[C@H](O)[C@H]1O)[C@H](O)[C@@H](O)CO` [Maltitol]: the “compactability (slope of the correlation between compression force and crushing strength)” value is “very poor compactability”.
The same measure, in the same setting: in the case of `OC[C@@H](O)[C@@H](O)[C@H](O)[C@@H](O)CO` [sorbitol, Sorbitol] it was “best compactability”; in that of Isomalt, “Sorbitol is followed by isomalt”; in that of `OC[C@@H](O)[C@@H](O)[C@H](O)[C@H](O)CO` [mannitol, Mannitol], “very poor compactability”.
As to `OC[C@@H](O)[C@H](O)[C@@H](O)CO` [xylitol, Xylitol], the “compactability (slope of the correlation between compression force and crushing strength)” value was “very poor compactability”.

The data set is the same for the next values; noted with them: two mean particle sizes, 38 μm and 110 μm; FIG. 1.
With `OC[C@@H](O)[C@@H](O)[C@H](O)[C@@H](O)CO` [sorbitol, Sorbitol], the “tablet crushing strength, dependence on particle size” value is “independent of particle size”.

Values taken from patent US9101565B2, “Dissolution stability of calcium carbonate tablets” (TAKEDA NYCOMED AS, priority 2008, dated 2015).
